Measured values as given in DBAASP.
Converted amounts (≈) assume the structure as drawn. Blank lines part the entries; values can stand above or below the compound they belong to.

Tests used:
Assay in all cases: ≥ marks a high value that may be exact or a test limit, other limits are often not marked, values filed in µg/mL are converted to µM
[1] = test system: Escherichia coli PCM 2057
[2] = test system: Staphylococcus aureus PCM 1944
[3] = test system: Corynebacterium diphtheriae ATCC 8024
[4] = test system: Staphylococcus aureus ATCC 6538
[5] = test system: Candida albicans ATCC 36232
Staphylococcus aureus = test system: Staphylococcus aureus
[6] = test system: Shigella flexneri ATCC 203
[7] = test system: Staphylococcus epidermidis ATCC 12228
[8] = test system: Escherichia coli ATCC 2592
[9] = test system: Micrococcus luteus ATCC 9341
[10] = test system: Bacillus subtilis ATCC 6633
[11] = test system: Pseudomonas aeruginosa ATCC 9027
Listeria monocytogenes = test system: Listeria monocytogenes
Serratia marcescens Db11 = test system: Serratia marcescens Db11
[12] = test system: Enterobacter cloacae beta-12
[13] = test system: Pseudomonas aeruginosa ATCC 82118
Bacillus subtilis QB935 = test system: Bacillus subtilis QB935
Bacillus megaterium = test system: Bacillus megaterium
Aerococcus viridans = test system: Aerococcus viridans
Micrococcus luteus A270 = test system: Micrococcus luteus A270
Bacillus thuringiensis = test system: Bacillus thuringiensis
Pediococcus acidilactici = test system: Pediococcus acidilactici
[14] = test system: Staphylococcus saprophyticus
Escherichia coli D22 = test system: Escherichia coli D22
Alcaligenes faecalis = test system: Alcaligenes faecalis
Klebsiella pneumoniae = test system: Klebsiella pneumoniae
Salmonella typhimurium = test system: Salmonella typhimurium

- MIC [1]: ≥ 505 µM
- MIC [2]: ≥ 505 µM
SMILES: CC[C@H](C)[C@@H]1NC(=O)[C@H](CO)NC(=O)[C@H](CCCCN)NC(=O)[C@@H](NC(=O)[C@H](CCCN=C(N)N)NC(=O)[C@H](Cc2ccccc2)NC(=O)[C@H](Cc2cnc[nH]2)NC(=O)[C@@H](NC(=O)[C@H](CCCCN)NC(=O)[C@H](Cc2ccccc2)NC(=O)[C@@H]2CCCN2C(=O)[C@@H](NC(=O)[C@H](CC(N)=O)NC(=O)[C@H](C)NC(=O)[C@H](C)N)[C@@H](C)CC)C(C)C)CSSC[C@@H](C(=O)O)NC(=O)[C@H](Cc2ccccc2)NC1=O [AANIPFKVHFRCKSIFC]

- MIC [3]: ≥ 96.7 µM
- MIC [4]: > 96.7 µM
- MIC [5]: ≥ 96.7 µM
- MIC (Staphylococcus aureus): > 96.7 µM
- MIC [6]: ≥ 96.7 µM
- MIC [7]: > 96.7 µM
- MIC [8]: ≥ 96.7 µM
- MIC [9]: ≥ 96.7 µM
- MIC [10]: ≥ 96.7 µM
- MIC [11]: > 96.7 µM
SMILES: CC(C)[C@H](NC(=O)[C@H](CS)NC(=O)[C@@H](NC(=O)[C@H](CCCN=C(N)N)NC(=O)[C@H](CCCCN)NC(=O)CNC(=O)[C@@H](N)CC(N)=O)C(C)C)C(=O)N[C@@H](CS)C(=O)N[C@@H](CCCN=C(N)N)C(N)=O [NGKRVCVCR]

- MIC (Listeria monocytogenes): 5 µM (≈ 23.6 µg/mL)
- MIC (Staphylococcus aureus): 0.88 µM (≈ 4.16 µg/mL)
- MIC (Serratia marcescens Db11): 5 µM (≈ 23.6 µg/mL)
- MIC [12]: 5 µM (≈ 23.6 µg/mL)
- MIC [13]: 5 µM (≈ 23.6 µg/mL)
- MIC (Bacillus subtilis QB935): 3.54 µM (≈ 16.7 µg/mL)
- MIC (Bacillus megaterium): 0.212 µM (≈ 1 µg/mL)
- MIC (Aerococcus viridans): 0.424 µM (≈ 2.01 µg/mL)
- MIC (Micrococcus luteus A270): 0.212 µM (≈ 1 µg/mL)
- MIC (Bacillus thuringiensis): 5 µM (≈ 23.6 µg/mL)
- MIC (Pediococcus acidilactici): 3.54 µM (≈ 16.7 µg/mL)
- MIC [14]: 1.77 µM (≈ 8.36 µg/mL)
- MIC (Escherichia coli D22): 3.54 µM (≈ 16.7 µg/mL)
- MIC (Alcaligenes faecalis): 5 µM (≈ 23.6 µg/mL)
- MIC (Klebsiella pneumoniae): > 5 µM
- MIC (Salmonella typhimurium): 5 µM (≈ 23.6 µg/mL)
SMILES: CC[C@H](C)[C@@H]1NC(=O)[C@H](CC(=O)O)NC(=O)[C@@H](NC(=O)[C@@H](NC(=O)[C@H](C)N)[C@@H](C)O)CSSC[C@@H]2NC(=O)[C@H](CCC(N)=O)NC(=O)CNC(=O)CNC(=O)[C@H](CCCCN)NC(=O)[C@H](Cc3ccc(O)cc3)NC(=O)CNC(=O)[C@H](CCCCN)NC(=O)[C@H]([C@@H](C)CC)NC(=O)[C@H](C(C)C)NC(=O)[C@@H]3CSSC[C@@H](C(=O)N[C@@H](CCCN=C(N)N)C(=O)N[C@@H](CCCN=C(N)N)C(=O)O)NC(=O)[C@H](Cc4cnc[nH]4)NC(=O)[C@H](CSSC[C@H](NC(=O)CNC(=O)[C@H](C)NC(=O)[C@H](Cc4cnc[nH]4)NC(=O)[C@H](CC(N)=O)NC(=O)[C@@H]4CCCN4C(=O)[C@H]([C@@H](C)O)NC(=O)[C@H](C(C)C)NC(=O)[C@H](Cc4c[nH]c5ccccc45)NC(=O)[C@H](CCC(N)=O)NC(=O)[C@H](CO)NC(=O)[C@H](CCC(N)=O)NC(=O)[C@H](Cc4ccccc4)NC(=O)[C@H](CO)NC(=O)[C@H](CC(C)C)NC1=O)C(=O)N[C@@H](C)C(=O)N[C@@H](CC(C)C)C(=O)N[C@@H](Cc1cnc[nH]1)C(=O)N3)NC(=O)[C@H](C(C)C)NC(=O)[C@H]([C@@H](C)O)NC(=O)[C@H]([C@@H](C)CC)NC(=O)[C@H](CCCCN)NC2=O [ATCDILSFQSQWVTPNHAGCALHCVIKGYKGGQCKITVCHCRR]
